Assay results taken from ChEMBL document CHEMBL1201862, “PubChem BioAssay data set” (2004).
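Step 1: Grow cells in 96-well plates. Step 2: Expose to compound for 48 hours at 5 concentrations. Step 3: Interpolate endpoints linearly; if unreached, use highest concentration. GI50 is the concentration that inhibits growth by half.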 The source made the active and inactive calls. Cut-off read from the data, not from the text of the source: active = GI50 up to about 1.1 µM and inactive = higher.

Columns and labels:
Assay in all cases: NCI anticancer screen, dose series, 48 h
[1] = system: 786-0
[2] = system: A498
[3] = system: CAKI-1
[4] = system: CCRF-CEM
[5] = system: IGROV-1
[6] = system: M14
[7] = system: MOLT-4
[8] = system: Malme-3M
[9] = system: NCI-H23
[10] = system: NCI-H522
[11] = system: RXF 393
[12] = system: SF-268
[13] = system: SF-295
[14] = system: SF-539
[15] = system: SK-MEL-28
[16] = system: SNB-19
[17] = system: SR
[18] = system: SW-620
[19] = system: U-251
[20] = system: UO-31

SMILES | GI50 [1] | GI50 [2] | GI50 [3] | GI50 [4] | GI50 [5] | GI50 [6] | GI50 [7] | GI50 [8] | GI50 [9] | GI50 [10] | GI50 [11] | GI50 [12] | GI50 [13] | GI50 [14] | GI50 [15] | GI50 [16] | GI50 [17] | GI50 [18] | GI50 [19] | GI50 [20]
COC(=O)C(Cc1nc2ccccc2nc1O)C(=O)C(=O)Nc1ccc([N+](=O)[O-])cc1[N+](=O)[O-] (stereo not given) | 16.5 µM (inactive) | 23 µM (inactive) | 32.4 µM (inactive) | 13.2 µM (inactive) | 25.6 µM (inactive) | 17.8 µM (inactive) | 18.5 µM (inactive) | 19.3 µM (inactive) | 18.7 µM (inactive) | 6.22 µM (inactive) | 18.3 µM (inactive) | 21.5 µM (inactive) | 24.9 µM (inactive) | 20.6 µM (inactive) | 22.6 µM (inactive) | 29.7 µM (inactive) | 12 µM (inactive) | 18.7 µM (inactive) | 17.1 µM (inactive) | 20.6 µM (inactive)
CC(=O)OC(=C(C#N)C#N)c1nccnc1C(C)=O | > 20 µM (inactive) | > 20 µM (inactive) | > 20 µM (inactive) | 11.2 µM (inactive) | > 20 µM (inactive) | 4.8 µM (inactive) | > 20 µM (inactive) | 9.29 µM (inactive) | > 20 µM (inactive) | 19.2 µM (inactive) | 5.77 µM (inactive) | 3.59 µM (inactive) | 10.9 µM (inactive) | 7.24 µM (inactive) | 9.77 µM (inactive) | > 20 µM (inactive) | 18.5 µM (inactive) | > 20 µM (inactive) | 6.07 µM (inactive) | > 20 µM (inactive)
CCCCC(C(=O)C(=O)NC1C2CC3CC(C2)CC1C3)C(=O)C(C)C (stereo not given) | > 100 µM (inactive) | > 100 µM (inactive) | > 100 µM (inactive) | > 100 µM (inactive) | > 100 µM (inactive) | > 100 µM (inactive) | > 100 µM (inactive) | > 100 µM (inactive) | > 100 µM (inactive) | > 100 µM (inactive) | > 100 µM (inactive) | > 100 µM (inactive) | > 100 µM (inactive) | > 100 µM (inactive) | > 100 µM (inactive) | > 100 µM (inactive) | > 100 µM (inactive) | > 100 µM (inactive) | > 100 µM (inactive) | > 100 µM (inactive)
Cc1cccc2c(N)c3cccc(C(=O)NCC[N+](C)(C)Cc4ccc([N+](=O)[O-])s4)c3nc12 | 1.98 µM (inactive) | 4.65 µM (inactive) | 2.37 µM (inactive) | 1.85 µM (inactive) | 2.85 µM (inactive) | 16.5 µM (inactive) | 0.472 µM (active) | 8.2 µM (inactive) | 4.51 µM (inactive) | 5.28 µM (inactive) | 8.36 µM (inactive) | 4.78 µM (inactive) | 9.64 µM (inactive) | 4.93 µM (inactive) | 33 µM (inactive) | 3.22 µM (inactive) | 1.19 µM (inactive) | 5.4 µM (inactive) | 2.91 µM (inactive) | 11.4 µM (inactive)
O=C(/C=C/c1ccc2ccccc2c1)NCc1ccc(C(=O)NCc2ccccc2)cc1 | 67.9 µM (inactive) | > 83.8 µM (inactive) | 28.3 µM (inactive) | > 93.3 µM (inactive) | > 70 µM (inactive) | > 100 µM (inactive) | > 66.7 µM (inactive) | > 35.8 µM (inactive) | > 83.4 µM (inactive) | > 56.8 µM (inactive) | 41.8 µM (inactive) | 36.5 µM (inactive) | 34.4 µM (inactive) | 27.5 µM (inactive) | > 100 µM (inactive) | 35.9 µM (inactive) | > 100 µM (inactive) | > 100 µM (inactive) | > 60 µM (inactive) | > 53.8 µM (inactive)
NC(=S)NN=C1Cc2ccccc2C1 | > 100 µM (inactive) | > 100 µM (inactive) | > 100 µM (inactive) | > 100 µM (inactive) | > 100 µM (inactive) | > 100 µM (inactive) | > 100 µM (inactive) | > 100 µM (inactive) | > 100 µM (inactive) | > 100 µM (inactive) | > 100 µM (inactive) | > 100 µM (inactive) | > 100 µM (inactive) | > 100 µM (inactive) | > 100 µM (inactive) | > 100 µM (inactive) | > 100 µM (inactive) | > 100 µM (inactive) | > 100 µM (inactive) | > 100 µM (inactive)
c1ccc(C2=NOC3COc4ccccc4OCC23)cc1 (stereo not given) | > 100 µM (inactive) | > 100 µM (inactive) | 97.5 µM (inactive) | > 100 µM (inactive) |  | > 100 µM (inactive) | > 100 µM (inactive) | > 100 µM (inactive) | > 100 µM (inactive) | > 100 µM (inactive) | > 100 µM (inactive) | > 100 µM (inactive) | > 100 µM (inactive) | > 100 µM (inactive) | > 100 µM (inactive) | > 100 µM (inactive) | > 100 µM (inactive) | > 100 µM (inactive) | > 100 µM (inactive) | 77.1 µM (inactive)
Cc1cc(C)c(C#N)c(SC(=S)NC(=O)c2ccccc2)n1 | > 100 µM (inactive) | > 100 µM (inactive) | > 100 µM (inactive) | > 100 µM (inactive) | > 100 µM (inactive) | > 100 µM (inactive) | > 100 µM (inactive) | > 100 µM (inactive) | > 100 µM (inactive) | > 100 µM (inactive) | 3.95 µM (inactive) | > 100 µM (inactive) |  | > 100 µM (inactive) | > 100 µM (inactive) | > 100 µM (inactive) | > 100 µM (inactive) | > 100 µM (inactive) | > 100 µM (inactive) | > 100 µM (inactive)
O=Cc1ccc(-c2cc(C=O)c(-c3cccs3)[nH]2)s1 | 48.4 µM (inactive) | 2.6 µM (inactive) | 9.4 µM (inactive) | 20 µM (inactive) | 15.7 µM (inactive) | 24 µM (inactive) | 20.2 µM (inactive) | 46.7 µM (inactive) | 37 µM (inactive) | 10.3 µM (inactive) | 35.6 µM (inactive) | > 75 µM (inactive) | 21.8 µM (inactive) | 24.4 µM (inactive) | 36.3 µM (inactive) | 44.9 µM (inactive) | 4.05 µM (inactive) | > 75 µM (inactive) | 18.7 µM (inactive) | 26.6 µM (inactive)
COC(=O)/C=C\C(C#N)(C#N)/N=C/c1ccc(C)cc1 | 1.6 µM (inactive) | 17.7 µM (inactive) | 2.59 µM (inactive) | 0.0673 µM (active) | 13.1 µM (inactive) | 2.01 µM (inactive) | 0.778 µM (active) | 2.28 µM (inactive) | 5.57 µM (inactive) | 0.378 µM (active) | 1.9 µM (inactive) | 3.78 µM (inactive) | 25.2 µM (inactive) | 4.38 µM (inactive) | 5.5 µM (inactive) | 19.5 µM (inactive) | 0.706 µM (active) | 1.95 µM (inactive) | 13 µM (inactive) | 2.49 µM (inactive)
CC1(CCCCO)C=CC(S(=O)(=O)c2ccccc2)CC1 (stereo not given) | 3.96 µM (inactive) | 8.59 µM (inactive) | 10.7 µM (inactive) | 2.67 µM (inactive) | 2.38 µM (inactive) | 3.4 µM (inactive) | 3.15 µM (inactive) | 0.581 µM (active) | 5.04 µM (inactive) | 1.87 µM (inactive) | 5.45 µM (inactive) | 1.36 µM (inactive) | 12 µM (inactive) | 7.91 µM (inactive) | 14.9 µM (inactive) | 13.6 µM (inactive) | 2.33 µM (inactive) | 5.87 µM (inactive) | 6.95 µM (inactive) | 4.16 µM (inactive)
Oc1ccc2ccccc2c1-c1c(Nc2ccccc2)ccc2ccccc12 | 17.8 µM (inactive) | 18.1 µM (inactive) | 14.9 µM (inactive) | 16.2 µM (inactive) | 5.73 µM (inactive) | 11.7 µM (inactive) | 17.7 µM (inactive) | 8.53 µM (inactive) | 15.6 µM (inactive) | 15.8 µM (inactive) | 17.2 µM (inactive) | 16.7 µM (inactive) | 16.8 µM (inactive) | 14 µM (inactive) | 13.9 µM (inactive) | 18.5 µM (inactive) | 16 µM (inactive) | 11.4 µM (inactive) | 21.8 µM (inactive) | 15.7 µM (inactive)
CCN(CC)C(=S)SNCc1ccc(S(N)(=O)=O)cc1 | 14.3 µM (inactive) | > 57.1 µM (inactive) | 14.7 µM (inactive) |  | 13.1 µM (inactive) | 10.7 µM (inactive) | 8.97 µM (inactive) | 15.3 µM (inactive) | 19.3 µM (inactive) | 0.0191 µM (active) | 18.1 µM (inactive) | 12.9 µM (inactive) | 9.06 µM (inactive) | 14.5 µM (inactive) | 18.2 µM (inactive) | 16 µM (inactive) | 1.28 µM (inactive) | 20 µM (inactive) | 11.2 µM (inactive) | 13.1 µM (inactive)
Cc1cc(-c2ccc(Cl)cc2)c(C#N)c(=S)n1C1OC(CO)C(O)C(O)C1O (stereo not given) | > 100 µM (inactive) | > 100 µM (inactive) | > 100 µM (inactive) | > 100 µM (inactive) | > 100 µM (inactive) | > 100 µM (inactive) | > 100 µM (inactive) | > 100 µM (inactive) | > 100 µM (inactive) | > 100 µM (inactive) | > 100 µM (inactive) | > 100 µM (inactive) | > 100 µM (inactive) | > 100 µM (inactive) | > 100 µM (inactive) | > 100 µM (inactive) | > 100 µM (inactive) | > 100 µM (inactive) |  | 
